Tests used:
Type in all cases: in vivo
Stellaria media = assay: Post-emergence herbicidal activity test; settings: 2-4 weeks after treatment
How it was run: (§1)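 Acetone stock diluted in water; post-emergence spray, ~0.025–0.4 kg/ha per pot. Greenhouse, standard care. Visual rating at 2–4 wk post-treatment.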

Galium aparine [1] = assay: Post-emergence herbicidal activity test; settings: 2-4 weeks after treatment
How it was run: as §1

Alopecurus myosuroides [2] = assay: Post-emergence herbicidal activity test; settings: 2-4 weeks after treatment
How it was run: as §1

Ambrosia artemisifolia [3] = assay: Post-emergence herbicidal activity test; settings: 2-4 weeks after treatment
How it was run: as §1

Digitaria sanguinalis [4] = assay: Post-emergence herbicidal activity test; settings: 2-4 weeks after treatment
How it was run: as §1

Echinochloa crus-galli [5] = assay: Post-emergence herbicidal activity test; settings: 2-4 weeks after treatment
How it was run: as §1

Ipomoea hederacea [6] = assay: Post-emergence herbicidal activity test; settings: 2-4 weeks after treatment
How it was run: as §1

Cassia obtusifolia [7] = assay: Post-emergence herbicidal activity test; settings: 2-4 weeks after treatment
How it was run: as §1

Zea mays [8] = assay: Post-emergence herbicidal activity test; settings: 2-4 weeks after treatment
How it was run: as §1

Glycine max [9] = assay: Post-emergence herbicidal activity test; settings: 0.100 kg/ha, 2-4 weeks after treatment
How it was run: as §1

Matricaria inodora [10] = assay: Post-emergence herbicidal activity test; settings: 2-4 weeks after treatment
How it was run: as §1

Orysa sativa [11] = assay: Post-emergence herbicidal activity test; settings: 2-4 weeks after treatment
How it was run: as §1

Abutilon theophrasti [12] = assay: Post-emergence herbicidal activity test; settings: 2-4 weeks after treatment
How it was run: as §1

Triticum aestivum [13] = assay: Post-emergence herbicidal activity test; settings: 2-4 weeks after treatment
How it was run: as §1

Setaria viridis [14] = assay: Post-emergence herbicidal activity test; settings: 2-4 weeks after treatment
How it was run: as §1

Galium aparine [15] = assay: Pre-emergence test; settings: 3 weeks after treatment
How it was run: (§2)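 Pre-emergence spray onto horticultural loam freshly sown with seeds, using acetone solutions containing 0.4% TRITON X-155 diluted in water. Applied at 0.013, 0.025, 0.100 or 0.400 kg active material per hectare in 900 litres per hectare. Pots rated 2 to 4 weeks after treatment against untreated sown controls.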

Alopecurus myosuroides [16] = assay: Pre-emergence test; settings: 3 weeks after treatment
How it was run: as §2

Ambrosia artemisifolia [17] = assay: Pre-emergence test; settings: 3 weeks after treatment
How it was run: as §2

Digitaria sanguinalis [18] = assay: Pre-emergence test; settings: 3 weeks after treatment
How it was run: as §2

Echinochloa crus-galli [19] = assay: Pre-emergence test; settings: 3 weeks after treatment
How it was run: as §2

Ipomoea hederacea [20] = assay: Pre-emergence test; settings: 3 weeks after treatment
How it was run: as §2

Cassia obtusifolia [21] = assay: Pre-emergence test; settings: 3 weeks after treatment
How it was run: as §2

Zea mays [22] = assay: Pre-emergence test; settings: 3 weeks after treatment
How it was run: as §2

Glycine max [23] = assay: Pre-emergence test; settings: 3 weeks after treatment
How it was run: as §2

Matricaria inodora [24] = assay: Pre-emergence test; settings: 3 weeks after treatment
How it was run: as §2

Orysa sativa [25] = assay: Pre-emergence test; settings: 3 weeks after treatment
How it was run: as §2

Abutilon theophrasti [26] = assay: Pre-emergence test; settings: 3 weeks after treatment
How it was run: as §2

Triticum aestivum [27] = assay: Pre-emergence test; settings: 3 weeks after treatment
How it was run: as §2

Lamium purpureum = assay: Pre-emergence test; settings: 3 weeks after treatment
How it was run: as §2

Setaria viridis [28] = assay: Pre-emergence test; settings: 3 weeks after treatment
How it was run: as §2

Cc1cc(Oc2cc(C(F)(F)F)nn2C)nc(C#Cc2ccccc2)n1 [Example 161]
Post-emergence application STEME (Stellaria media; 0.100 kg/ha): 2 (2-Slight effect) | Post-emergence application STEME (Stellaria media; 0.400 kg/ha): 4 (4-Injury) | Post-emergence application GALAP (Galium aparine [1]; 0.100 kg/ha): 7 (7-Good herbicidal effect) | Post-emergence application GALAP (Galium aparine [1]; 0.400 kg/ha): 8 (8-Approaching complete kill) | Post-emergence application ALOMY (Alopecurus myosuroides [2]; 0.100 kg/ha): 2 (2-Slight effect) | Post-emergence application ALOMY (Alopecurus myosuroides [2]; 0.400 kg/ha): 3 (3-Moderate effect) | Post-emergence application AMBEL (Ambrosia artemisifolia [3]; 0.100 kg/ha): 5 (5-Definite injury) | Post-emergence application AMBEL (Ambrosia artemisifolia [3]; 0.400 kg/ha): 5 (5-Definite injury) | Post-emergence application DIGSA (Digitaria sanguinalis [4]; 0.100 kg/ha): 2 (2-Slight effect) | Post-emergence application DIGSA (Digitaria sanguinalis [4]; 0.400 kg/ha): 2 (2-Slight effect) | Post-emergence application ECHCG (Echinochloa crus-galli [5]; 0.100 kg/ha): 1 (1-Trace effect) | Post-emergence application ECHCG (Echinochloa crus-galli [5]; 0.400 kg/ha): 2 (2-Slight effect) | Post-emergence application IPOHE (Ipomoea hederacea [6]; 0.100 kg/ha): 9 (9-Complete kill) | Post-emergence application IPOHE (Ipomoea hederacea [6]; 0.400 kg/ha): 9 (9-Complete kill) | Post-emergence application CASOB (Cassia obtusifolia [7]; 0.100 kg/ha): 1 (1-Trace effect) | Post-emergence application CASOB (Cassia obtusifolia [7]; 0.400 kg/ha): 3 (3-Moderate effect) | Post-emergence application ZEAMX (Zea mays [8]; 0.100 kg/ha): 2 (2-Slight effect) | Post-emergence application ZEAMX (Zea mays [8]; 0.400 kg/ha): 2 (2-Slight effect) | Post-emergence application GLXMA (Glycine max [9]): 3 (3-Moderate effect) | Post-emergence application MATIN (Matricaria inodora [10]; 0.100 kg/ha): 3 (3-Moderate effect) | Post-emergence application MATIN (Matricaria inodora [10]; 0.400 kg/ha): 4 (4-Injury) | Post-emergence application ORYSA (Orysa sativa [11]; 0.100 kg/ha): 2 (2-Slight effect) | Post-emergence application ORYSA (Orysa sativa [11]; 0.400 kg/ha): 3 (3-Moderate effect) | Post-emergence application ABUTH (Abutilon theophrasti [12]; 0.100 kg/ha): 4 (4-Injury) | Post-emergence application ABUTH (Abutilon theophrasti [12]; 0.400 kg/ha): 5 (5-Definite injury) | Post-emergence application TRZWA (Triticum aestivum [13]; 0.100 kg/ha): 2 (2-Slight effect) | Post-emergence application TRZWA (Triticum aestivum [13]; 0.400 kg/ha): 2 (2-Slight effect) | Post-emergence application SETVI (Setaria viridis [14]; 0.100 kg/ha): 4 (4-Injury) | Post-emergence application SETVI (Setaria viridis [14]; 0.400 kg/ha): 6 (6-Herbicidal effect) | Assessment (pre-emergence application) GALAP (Galium aparine [15]; 0.025 kg/ha): 1 (1-Trace effect) | Assessment (pre-emergence application) GALAP (Galium aparine [15]; 0.100 kg/ha): 1 (1-Trace effect) | Assessment (pre-emergence application) GALAP (Galium aparine [15]; 0.400 kg/ha): 3 (3-Moderate effect) | Assessment (pre-emergence application) ALOMY (Alopecurus myosuroides [16]; 0.025 kg/ha): 9 (9-Complete kill) | Assessment (pre-emergence application) ALOMY (Alopecurus myosuroides [16]; 0.100 kg/ha): 1 (1-Trace effect) | Assessment (pre-emergence application) ALOMY (Alopecurus myosuroides [16]; 0.400 kg/ha): 3 (3-Moderate effect) | Assessment (pre-emergence application) MBEL (Ambrosia artemisifolia [17]; 0.025 kg/ha): 2 (2-Slight effect) | Assessment (pre-emergence application) MBEL (Ambrosia artemisifolia [17]; 0.100 kg/ha): 2 (2-Slight effect) | Assessment (pre-emergence application) DIGSA (Digitaria sanguinalis [18]; 0.025 kg/ha): 1 (1-Trace effect) | Assessment (pre-emergence application) DIGSA (Digitaria sanguinalis [18]; 0.100 kg/ha): 3 (3-Moderate effect) | Assessment (pre-emergence application) DIGSA (Digitaria sanguinalis [18]; 0.400 kg/ha): 9 (9-Complete kill) | Assessment (pre-emergence application) ECHCG (Echinochloa crus-galli [19]; 0.025 kg/ha): 0 (0-No effect) | Assessment (pre-emergence application) ECHCG (Echinochloa crus-galli [19]; 0.100 kg/ha): 1 (1-Trace effect) | Assessment (pre-emergence application) ECHCG (Echinochloa crus-galli [19]; 0.400 kg/ha): 3 (3-Moderate effect) | Assessment (pre-emergence application) IPOHE (Ipomoea hederacea [20]; 0.025 kg/ha): 0 (0-No effect) | Assessment (pre-emergence application) IPOHE (Ipomoea hederacea [20]; 0.100 kg/ha): 3 (3-Moderate effect) | Assessment (pre-emergence application) IPOHE (Ipomoea hederacea [20]; 0.400 kg/ha): 3 (3-Moderate effect) | Assessment (pre-emergence application) CASOB (Cassia obtusifolia [21]; 0.025 kg/ha): 0 (0-No effect) | Assessment (pre-emergence application) CASOB (Cassia obtusifolia [21]; 0.100 kg/ha): 0 (0-No effect) | Assessment (pre-emergence application) CASOB (Cassia obtusifolia [21]; 0.400 kg/ha): 0 (0-No effect) | Assessment (pre-emergence application) ZEAMX (Zea mays [22]; 0.025 kg/ha): 0 (0-No effect) | Assessment (pre-emergence application) ZEAMX (Zea mays [22]; 0.100 kg/ha): 0 (0-No effect) | Assessment (pre-emergence application) ZEAMX (Zea mays [22]; 0.400 kg/ha): 0 (0-No effect) | Assessment (pre-emergence application) GLXMA (Glycine max [23]; 0.025 kg/ha): 0 (0-No effect) | Assessment (pre-emergence application) GLXMA (Glycine max [23]; 0.100 kg/ha): 0 (0-No effect) | Assessment (pre-emergence application) GLXMA (Glycine max [23]; 0.400 kg/ha): 1 (1-Trace effect) | Assessment (pre-emergence application) MATIN (Matricaria inodora [24]; 0.025 kg/ha): 3 (3-Moderate effect) | Assessment (pre-emergence application) MATIN (Matricaria inodora [24]; 0.100 kg/ha): 4 (4-Injury) | Assessment (pre-emergence application) MATIN (Matricaria inodora [24]; 0.400 kg/ha): 8 (8-Approaching complete kill) | Assessment (pre-emergence application) ORYSA (Orysa sativa [25]; 0.025 kg/ha): 0 (0-No effect) | Assessment (pre-emergence application) ORYSA (Orysa sativa [25]; 0.100 kg/ha): 1 (1-Trace effect) | Assessment (pre-emergence application) ORYSA (Orysa sativa [25]; 0.400 kg/ha): 1 (1-Trace effect) | Assessment (pre-emergence application) ABUTH (Abutilon theophrasti [26]; 0.025 kg/ha): 2 (2-Slight effect) | Assessment (pre-emergence application) ABUTH (Abutilon theophrasti [26]; 0.100 kg/ha): 4 (4-Injury) | Assessment (pre-emergence application) ABUTH (Abutilon theophrasti [26]; 0.400 kg/ha): 4 (4-Injury) | Assessment (pre-emergence application) TRZWA (Triticum aestivum [27]; 0.025 kg/ha): 0 (0-No effect) | Assessment (pre-emergence application) TRZWA (Triticum aestivum [27]; 0.100 kg/ha): 0 (0-No effect) | Assessment (pre-emergence application) TRZWA (Triticum aestivum [27]; 0.400 kg/ha): 0 (0-No effect) | Assessment (pre-emergence application) LAMPU (Lamium purpureum; 0.025 kg/ha): 0 (0-No effect) | Assessment (pre-emergence application) LAMPU (Lamium purpureum; 0.100 kg/ha): 5 (5-Definite injury) | Assessment (pre-emergence application) LAMPU (Lamium purpureum; 0.400 kg/ha): 7 (7-Good herbicidal effect) | Assessment (pre-emergence application) SETVI (Setaria viridis [28]; 0.025 kg/ha): 2 (2-Slight effect) | Assessment (pre-emergence application) SETVI (Setaria viridis [28]; 0.100 kg/ha): 4 (4-Injury) | Assessment (pre-emergence application) SETVI (Setaria viridis [28]; 0.400 kg/ha): 7 (7-Good herbicidal effect)
